# In patent US8337828B2, “Use of thymosin alpha 1, alone or in combination with PTX3 or ganciclovir, for the treatment of cytomegalovirus infection” (priority 2006, dated 2012):
# Ends that are not written are not given here.
# Experiments:
# NK cells = assay type: in vivo, BALB/c mice; settings: 200 μg/kg for a week
# Method: Phenotypic analysis of total (FIG. 2a, FIG. 2b) or NK (FIG. 2c) cells from spleen of MCMV-infected BALB/c mice untreated (−) or treated (+) with 200 μg/kg Thymosin alpha 1 for a week; None represents uninfected mice. Numbers refer to the percentage of positive cells on FACS analysis, a week after the infection. Histograms are representative of 1 out of 4 independent experiments. (FIG. 2d) Cytotoxic activity (by standard 51Cr-release assay against YAC-1 targets) and frequency of IFN-.-producing NK cells by ELISPOT assay from mice treated as above. Bars indicate the standard errors. *P<0.05, infected vs uninfected mice. **P<0.05, Thymosin alpha 1-treated vs untreated infected mice. The results shown are from 5 independent experiments. Flow cytometry analyses. After blocking of FcRs with the anti-CD16/32 (2.4G2) antibody, cells were analyzed for antigen expression with a FACScan flow cytofluorometer (Becton Dickinson, Mountain View, Calif.) equipped with CELLQuest™ software. Control staining of cells with irrelevant Ab was used to obtain background fluorescence values. Abs were from PharMingen. NK cell cytotoxic activity. NK cells, purified from spleens by DX5 microbeads (Miltenyi Biotec), were defined as NK1.1+CD3-cells. NK cytolytic activity was assessed against 51 Cr-labeled YAC-1 lymphoma cells (Blood 2005; 106:4397-4406). Quantification of cytokines by ELISA and ELISPOT assays. The levels of cytokines in the culture supernatants of mitogen-stimulated spleen cells (48 h stimulation with 10 μg/ml ConA) or MCMV-pulsed DC (24 h) were determined by ELISA (R&D Systems and PBL, Biomedical Lab, Milan, Italy). The detection limits (pg/ml) of the assays were <16 for IL-12 p70, <10 for IFN-., <3 for IL-10 and <10 for IFN-a. IFN-.-producing NK cells were enumerated by ELISPOT assay on purified NK (Virus Res. 2003; 98:17-467 25). Results are expressed as the mean number of cytokine-producing cells (±SE) per 10^5 cells, calculated using replicates of serial 2-fold dilutions of cells.
# MCMV = MCMV viral load in TLR-deficient mice (plaque assay); assay type: in vivo, C57BL6, TLR4-/-, TLR9-/- and MyD88-/- mice; settings: 200 μg/kg for a week
# Method: Viral load (FIG. 4a) and cytokine production (FIG. 4b) in C57BL6, TLR4−/−, TLR9−/− and MyD88−/− mice infected with 5×10^5 PFU of MCMV and treated with 200 μg/kg Tα1 for a week. Virus titers, expressed as log 10, were quantified on MEF cells by standard plaque assay on infected tissues removed a week after infection and treatment. Cytokine (pg/ml) levels in culture supernatants of spleen cells were determined by ELISA assay. Bars indicate the standard errors. *P<0.05, Tα1-treated vs untreated mice. Results are representative of 3 independent experiments. Mice. Wild-type (WT) inbred C57BL6 and BALB/c mice, 8 to 12 weeks old, were purchased from Charles River Breeding Laboratories (Calco, Italy). Pairs of homozygous TLR9-(TLR9−/−), TLR4-(TLR4−/−), and MyD88-(MyD88−/−)-deficient mice (on the C57BL6 background), were bred under specific pathogen-free conditions at the breeding facilities of the University of Perugia, Perugia, Italy. Experiments were performed following protocols approved by the institutional animal committee and in accordance with European Economic Community Council Directive as well as institutional animal care and use guidelines. Plaque assay. Plaque assay was determined on cells grown to subconfluence and incubated with serially diluted virus samples for 2 h at 37° C. (10). All organs from uninfected animals were negative viruses. Virus titers are expressed as log 10 (mean±standard errors, SE).
# [1] = spleen, MCMV-infected BALB/c mice
substance,measurement,setting,value
"Ac-Ser-Asp-Ala-Ala-Val-Asp-Thr-Ser-Ser-Glu -Ile-Thr-Thr-Lys-Asp-Leu-Lys-Glu-Lys-Lys-Glu-Val-Glu-Glu-Ala-Glu-Asn-O (Ac-SDAAVDTSSEITTKDLKEKKEVEEAEN) [Thymosin alpha 1, acidic peptide present in thymus extract with immunoregulatory properties]",frequency of IFN-.-producing cells (ELISPOT),NK cells; ex-vivo purified splenic NK cells,significantly up-regulated
same,expansion of CD4+ or CD8+ T cells,NK cells; [1],not affecting the expansion
same,expansion of NK1.1+ NK cells,NK cells; [1],expanded
same,expression of the activation marker CD69 on NK cells,NK cells; [1],increased expression
same,antiviral effect (viral load),MCMV; C57BL6 mice,effective
same,antiviral effect (viral load),MCMV; MyD88-/- mice,completely ineffective
same,antiviral effect (viral load),MCMV; TLR4-/- mice,effective
same,antiviral effect (viral load),MCMV; TLR9-/- mice,completely ineffective
